Laboratory results taken from patent publication US20060058346A1, “Novel enantiomers of etrahydroisoquinoline derivatives and theirpharmaceutically acceptable salts, their preparations and pharmaceutical compositions” (priority 2002, published 2006).
Read-outs that look alike come from different tables or passages of the source.

What was measured:
[1] = test system: Rat Thoracic Aortas; test: Relaxation of rat thoracic aortas contracted by phenylephrine; details: 0.1 μM phenylephrine contraction
Description: Experimental group was divided into two groups, group containing endothelial cells of blood vessel and group not containing. Blood vessel of thoracic aortas was induced to contract by treatment with 0.1 μM of phenyleprine under tension of 1 g. Upon arriving at equilibrium, the enantiomers were added to an organ bath in a cumulative manner. Relaxation of thoracic aortas was recorded using a physiograph (Grass P7), calculating their response to the compounds with consideration of their added amount.

[2] = test system: left auricle muscle; test: Contractile force of left auricle muscle excised from rats; parameters: species or system rat; details: vehicle control:100%
Description: (§1) Immediately after Sprague-Dawley rats (female or male) were anaesthetized with pentobarbital sodium (50 mg/kg, i.m.), the thorax was opened to excise the heart. The heart was submerged in Krebs solution, and left auricle muscle and right auricle muscle were then isolated. The left auricle muscle was placed in an organ bath for recording of contractile force, and applied with electrical field stimulation (voltage 10% higher than threshold voltage, 1 Hz frequency, 5 ms duration). In the case of right auricle muscle, which contracts spontaneously, the number of continuous beats was recorded. In this experiment, to measure contractile fore of the two auricle muscles, the organ bath was warmed to 37° C., and as a physiological solution, Krebs solution (119.8 mM NaCl, 4.6 mM KCl, 2.5 mM CaCl2, 1.2 mM MgCl2, 25 mM NaHCO3, 1.2 mM KH2PO4, 10 mM glucose, 1 mM EDTA, pH 7.4) was used. The Krebs solution (pH 7.4) was continuously saturated with a gas mixture of 95% O2 and 5% CO2. The auricle muscle was under a tension of 1 g, and Krebs solution was exchanged with fresh solution at intervals of 20 minutes while equilibrium was maintained during a recording period of 60 minutes.

[3] = test system: rat PRP; details: epinephrine; from Yun-Choi et al. 2001; read-out: IC50 platelet aggregation, epinephrine, racemic mixture; cited from earlier work
[4] = test system: LPS-injected rat; details: from Kang et al. 1999; cited from earlier work
[5] = test system: RAW 264.7 macrophage cells; test: Nitric oxide production in macrophage cell stimulated by LPS (Griess); assay type: cell-based; details: LPS 1 μg/ml
Description: RAW 264.7 macrophage cells were plated on 100 mm culture dishes at a density of 1-2×10^5 cells. Thereafter, the said macrophage cell was incubated in DMEM medium containing 10% fetal calf serum (heat-inactivated), 100 U/ml penicillin, and […] streptomycin in a CO2 incubator. The said macrophage cell was incubated therein confluently. The said incubated macrophage cells were transferred to serum-free DMEM medium, and further incubated therein for about 24 hours. Thereafter, macrophage cells were stimulated with LPS (1 μg/ml) for about 8 hours. (In this progress, experimental group was divided into two groups, group to which the compound was administered, and group to which the compound was not.) Then, nitrite quantification was achieved by performing calorimetric reaction for produced nitrite with Griess reagent and then measuring absorbance at 550 nm, while using NaNO2 as a standard.

[6] = test system: right auricle muscle; test: Heart rates (beats) of right auricle muscle excised from rats; parameters: species or system rat; details: vehicle control:100%
Description: as §1

[7] = test system: LPS-injected rat; test: Serum/plasma level of nitrate/nitrite (NOx) in LPS-injected rat; assay type: in vivo; details: 10 mg/kg compound; LPS 20 mg/kg
Description: The rats were divided into three groups; (1) LPS-injected group (LPS was administered to abdominal cavity in an amount of 20 mg/kg), (2) enantiomer-injected group (LPS+the compounds represented by formula 3 to 8 was administered to abdominal cavity) or (3) saline solution-injected group. After administration of LPS, the rats were anaesthetized with pentobarbital. The blood was collected from rats by using heart punching. The plasma level of nitrite was measured by using the nitrate reductase derived from Aspergillus species, where the nitrate was reduced by enzyme. Particularly, the plasma was diluted with distilled water in a ratio of 1:10. Analysis buffering solution (KH2PO4 50 Mm, NADPH 0.6 Mm, FAD 5 Mm and nitrate reductase 10 U/ml, Ph 5.5) was added to the said plasma. Thereafter, the reaction was accomplished at 37° C. for 30 min. The plasma level of nitrite was measured by using sodium nitrite as a standard, and Griess solution. Standard curve to nitrite was calculated from the result derived from incubation in analysis buffering solution.

[8] = test system: Sprague-Dawley rats; test: Acute toxicity in rat (LD50); assay type: in vivo; details: for LD50, Intraperitioneal injection: single intraperitoneal injection; for LD50, Intravenous injection: single intravenous injection
Description: (§2) Sprague-Dawley rats (six weeks) were used as test sample. Each group was comprised of two rats. […] The said emulsion was administered to two rats one times using intravenous injection and intraperitoneal injection.

[9] = Acute toxicity in rat (LD50); assay type: in vivo; details: Sprague-Dawley, in vivo
Description: as §2

[10] = group containing endothelial cells, read-out: IC50 (E+), concentration showing relaxation response of 50%
[11] = group not containing endothelial cells, read-out: IC50 (E−), concentration showing relaxation response of 50%

SMILES	IC50 [1, 10]	IC50 [1, 11]	Contractile Force of Auricle Muscles ([2]; 1 × 10^−4 M)	Contractile Force of Auricle Muscles ([2]; 1 × 10^−5 M)	Contractile Force of Auricle Muscles ([2]; 1 × 10^−6 M)	Contractile Force of Auricle Muscles ([2]; 1 × 10^−7 M)	Contractile Force of Auricle Muscles ([2]; 3 × 10^−5 M)	Contractile Force of Auricle Muscles ([2]; 3 × 10^−6 M)	Contractile Force of Auricle Muscles ([2]; 3 × 10^−7 M)	IC50 [3]	NO production by LPS in macrophage cell ([5]; compound 10 μM)	NO production by LPS in macrophage cell ([5]; compound 50 μM)	NO production by LPS in macrophage cell ([5]; compound 100 μM)	Heart Rates of Auricle Muscles ([6]; 1 × 10^−4 M)	Heart Rates of Auricle Muscles ([6]; 1 × 10^−5 M)	Heart Rates of Auricle Muscles ([6]; 1 × 10^−6 M)	Heart Rates of Auricle Muscles ([6]; 1 × 10^−7 M)	Heart Rates of Auricle Muscles ([6]; 3 × 10^−5 M)	Heart Rates of Auricle Muscles ([6]; 3 × 10^−6 M)	Heart Rates of Auricle Muscles ([6]; 3 × 10^−7 M)	further results
Oc1ccc(CC2NCCc3cc(O)c(O)cc32)cc1 (racemic) [Racemic mixture of formula 3 and formula 4, higenamine, reference compound]	9.81 µM	5.61 µM	300%	260%	180%	115%	280%	240%	130%	7.2 µM	21.3 µM	14.3 µM	15.2 µM	200%	140%	115%	110%	160%	125%	110%	survival, racemic mixture [4]: 80%; plasma level of NOx [7]: 75 ± 4 µM; LD50, Intraperitioneal injection [8]: 280 mg/kg; LD50, Intravenous injection [8]: 98 mg/kg
Oc1cc2c(cc1O)C(Cc1cccc3ccccc13)NCC2 (racemic) [Racemic mixture of formula 5 and formula 6, 1-α-naphthylmethyl-6,7-dihydroxy-1,2,3,4-tetrahydroisoquioline, reference compound]	0.105 µM	6.41 µM	490%	400%	310%	140%	430%	360%	200%	1.7 µM	31 µM	28 µM	26 µM	135%	130%	120%	115%	130%	120%	115%	survival, racemic mixture [4]: 90%; LD50, Intraperitioneal injection [8]: 242 mg/kg; LD50, Intravenous injection [8]: 92 mg/kg
Oc1cc2c(cc1O)C(Cc1ccc3ccccc3c1)NCC2 (racemic) [Racemic mixture of formula 7 and formula 8, 1-β-naphthylmethyl-6,7-dihydroxy-1,2,3,4-tetrahydroisoquinoline, reference compound]			310%	250%	180%	110%	270%	220%	140%	6.3 µM	45 µM	40 µM	39 µM	140%	140%	125%	110%	140%	135%	120%	IC50 ([1]; Rattus norvegicus, Endothelial cell, group containing endothelial cells, read-out: IC50 (E+), concentration showing relaxation response of 50%): 8.75 µM; IC50 ([1]; Rattus norvegicus, Endothelial cell, group not containing endothelial cells, read-out: IC50 (E−), concentration showing relaxation response of 50%): 51.5 µM; LD50 ([9]; ip, single intraperitoneal injection, read-out: LD50, Intraperitioneal injection): 220 mg/kg; LD50 ([9]; single intravenous injection, read-out: LD50, Intravenous injection): 84 mg/kg
